{
  "source": "paper PMC7041945",
  "about": "“Misfolded proteins bind and activate death receptor 5 to trigger apoptosis during unresolved endoplasmic reticulum stress” (eLife, 2020)",
  "tested_on": "CHOP, BiP, and DR5 mRNA in HCT116 cells",
  "assay": "qPCR of UPR target transcripts (CHOP, BiP, DR5)",
  "assay_type": "cell-based, Homo sapiens",
  "settings": "for 2^-(deltaCq) CHOP / 2^-(deltaCq) DR5 total / Cq CHOP / Cq DR5 total / Cq(sample) - avg Cq(GAPDH), CHOP / Cq(sample) - avg Cq(GAPDH), DR5 total / avg. fold induction CHOP / avg. fold induction DR5 total / fold induction CHOP / fold induction DR5 total: Rep 2; for avg. fold induction CHOP / avg. fold induction DR5 total / fold induction CHOP / fold induction DR5 total: vs 24 hr cytoGFP (empty traffo); for avg. fold induction CHOP / avg. fold induction DR5 total: mean of 3 replicates",
  "method": "Cells were grown in 6-well plates and harvested with 0.5 ml of TRIzol reagent (Life Technologies) per manufacturer’s protocol to extract RNA. For cDNA synthesis, 500 ng of total RNA was reverse transcribed with 2 μl of the SuperScript VILO master mix (Life Technologies # 11755050) in a total reaction volume of 10 μl following the manufacturer’s protocol for reaction temperature and duration. The reverse transcription product was diluted to 200 μl with 10 mM Tris-HCl pH 8.2 and used at 1:100 dilution for subsequent RT-PCR reactions.\nPCR samples were prepared as described by manufacturer’s protocols from iQ SYBR Green Supermix (BioRad #17088800).\nFor each experiment, qRT-PCR reactions were set up in triplicate and run using a CFX96 Real Time System (Bio-Rad). Quantitation cycles were determined with CFX Manager 3.0 software (Bio-Rad) and then normalized to GAPDH as an internal control.",
  "key": {"[1]": {"settings": "Compiled Reps INS RHO, average of 6 reps"}},
  "data": [
    {"substance": "RHO-GFP: GFP-tagged rhodopsin expressed from plasmid", "values": [
      {"measurement": "2^-(deltaCq) CHOP", "setting": "7 hr, replicate 2", "result": 0.09032},
      {"measurement": "2^-(deltaCq) DR5 total", "setting": "7 hr, replicate 2", "result": 0.04029},
      {"measurement": "Cq CHOP", "setting": "7 hr, replicate 2", "result": 23.1268},
      {"measurement": "Cq DR5 total", "setting": "7 hr, replicate 2", "result": 24.2914},
      {"measurement": "Cq(sample) - avg Cq(GAPDH), CHOP", "setting": "7 hr, replicate 2", "result": 3.4688},
      {"measurement": "Cq(sample) - avg Cq(GAPDH), DR5 total", "setting": "7 hr, replicate 2", "result": 4.633},
      {"measurement": "2^-(deltaCq) CHOP", "setting": "7 hr, replicate 3", "result": 0.09401},
      {"measurement": "2^-(deltaCq) DR5 total", "setting": "7 hr, replicate 3", "result": 0.03735},
      {"measurement": "Cq CHOP", "setting": "7 hr, replicate 3", "result": 23.069},
      {"measurement": "Cq DR5 total", "setting": "7 hr, replicate 3", "result": 24.4008},
      {"measurement": "Cq(sample) - avg Cq(GAPDH), CHOP", "setting": "7 hr, replicate 3", "result": 3.411},
      {"measurement": "Cq(sample) - avg Cq(GAPDH), DR5 total", "setting": "7 hr, replicate 3", "result": 4.743},
      {"measurement": "avg. fold induction CHOP", "setting": "7 hr", "result": 4.366},
      {"measurement": "avg. fold induction DR5 total", "setting": "7 hr", "result": 1.393},
      {"measurement": "fold induction CHOP", "setting": "7 hr, replicate 1", "result": 4.643},
      {"measurement": "fold induction DR5 total", "setting": "7 hr, replicate 1", "result": 1.47},
      {"measurement": "fold induction CHOP", "setting": "7 hr, replicate 2", "result": 4.143},
      {"measurement": "fold induction DR5 total", "setting": "7 hr, replicate 2", "result": 1.407},
      {"measurement": "fold induction CHOP", "setting": "7 hr, replicate 3", "result": 4.312},
      {"measurement": "fold induction DR5 total", "setting": "7 hr, replicate 3", "result": 1.304},
      {"measurement": "2^-(deltaCq) CHOP", "setting": "24 hr, replicate 1", "result": 0.04125},
      {"measurement": "2^-(deltaCq) DR5 total", "setting": "24 hr, replicate 1", "result": 0.04254},
      {"measurement": "Cq CHOP", "setting": "24 hr, replicate 1", "result": 23.6176},
      {"measurement": "Cq DR5 total", "setting": "24 hr, replicate 1", "result": 23.5731},
      {"measurement": "Cq(sample) - avg Cq(GAPDH), CHOP", "setting": "24 hr, replicate 1", "result": 4.6},
      {"measurement": "Cq(sample) - avg Cq(GAPDH), DR5 total", "setting": "24 hr, replicate 1", "result": 4.555},
      {"measurement": "2^-(deltaCq) CHOP", "setting": "24 hr, replicate 2", "result": 0.03991},
      {"measurement": "2^-(deltaCq) DR5 total", "setting": "24 hr, replicate 2", "result": 0.04129},
      {"measurement": "Cq CHOP", "setting": "24 hr, replicate 2", "result": 23.6651},
      {"measurement": "Cq DR5 total", "setting": "24 hr, replicate 2", "result": 23.6162},
      {"measurement": "Cq(sample) - avg Cq(GAPDH), CHOP", "setting": "24 hr, replicate 2", "result": 4.647},
      {"measurement": "Cq(sample) - avg Cq(GAPDH), DR5 total", "setting": "24 hr, replicate 2", "result": 4.598},
      {"measurement": "2^-(deltaCq) CHOP", "setting": "24 hr, replicate 3", "result": 0.039},
      {"measurement": "2^-(deltaCq) DR5 total", "setting": "24 hr, replicate 3", "result": 0.03658},
      {"measurement": "Cq CHOP", "setting": "24 hr, replicate 3", "result": 23.6985},
      {"measurement": "Cq DR5 total", "setting": "24 hr, replicate 3", "result": 23.7909},
      {"measurement": "Cq(sample) - avg Cq(GAPDH), CHOP", "setting": "24 hr, replicate 3", "result": 4.681},
      {"measurement": "Cq(sample) - avg Cq(GAPDH), DR5 total", "setting": "24 hr, replicate 3", "result": 4.773},
      {"measurement": "avg. fold induction CHOP", "setting": "24 hr", "result": 1.837},
      {"measurement": "avg. fold induction DR5 total", "setting": "24 hr", "result": 1.401},
      {"measurement": "fold induction CHOP", "setting": "24 hr, replicate 1", "result": 1.892},
      {"measurement": "fold induction DR5 total", "setting": "24 hr, replicate 1", "result": 1.485},
      {"measurement": "fold induction CHOP", "setting": "24 hr, replicate 2", "result": 1.831},
      {"measurement": "fold induction DR5 total", "setting": "24 hr, replicate 2", "result": 1.441},
      {"measurement": "fold induction CHOP", "setting": "24 hr, replicate 3", "result": 1.789},
      {"measurement": "fold induction DR5 total", "setting": "24 hr, replicate 3", "result": 1.277},
      {"measurement": "BiP avg fold change relative to empty", "setting": "Compiled Reps INS RHO, average of 3 reps", "result": 1.525},
      {"measurement": "CHOP avg fold change relative to empty", "setting": "[1]", "result": 1.961},
      {"measurement": "DR5 avg fold change relative to empty", "setting": "[1]", "result": 1.368},
      {"measurement": "GAPDH avg fold change relative to empty", "setting": "[1]", "result": 1.006},
      {"measurement": "GFP construct avg fold change relative to empty", "setting": "[1]", "result": 63.7569},
      {"measurement": "BiP fold change relative to empty", "setting": "Compiled Reps INS RHO, rep 1", "result": 1.759},
      {"measurement": "CHOP fold change relative to empty", "setting": "Compiled Reps INS RHO, rep 1", "result": 2.318},
      {"measurement": "DR5 fold change relative to empty", "setting": "Compiled Reps INS RHO, rep 1", "result": 1.2854},
      {"measurement": "GAPDH fold change relative to empty", "setting": "Compiled Reps INS RHO, rep 1", "result": 0.9696},
      {"measurement": "GFP construct fold change relative to empty", "setting": "Compiled Reps INS RHO, rep 1", "result": 45.8961},
      {"measurement": "BiP fold change relative to empty", "setting": "Compiled Reps INS RHO, rep 2", "result": 1.438},
      {"measurement": "CHOP fold change relative to empty", "setting": "Compiled Reps INS RHO, rep 2", "result": 1.9687},
      {"measurement": "DR5 fold change relative to empty", "setting": "Compiled Reps INS RHO, rep 2", "result": 1.492},
      {"measurement": "GAPDH fold change relative to empty", "setting": "Compiled Reps INS RHO, rep 2", "result": 1.117},
      {"measurement": "GFP construct fold change relative to empty", "setting": "Compiled Reps INS RHO, rep 2", "result": 55.1085},
      {"measurement": "BiP fold change relative to empty", "setting": "Compiled Reps INS RHO, rep 3", "result": 1.377},
      {"measurement": "CHOP fold change relative to empty", "setting": "Compiled Reps INS RHO, rep 3", "result": 1.972},
      {"measurement": "DR5 fold change relative to empty", "setting": "Compiled Reps INS RHO, rep 3", "result": 1.23},
      {"measurement": "GAPDH fold change relative to empty", "setting": "Compiled Reps INS RHO, rep 3", "result": 0.9232},
      {"measurement": "GFP construct fold change relative to empty", "setting": "Compiled Reps INS RHO, rep 3", "result": 65.8656},
      {"measurement": "CHOP fold change relative to empty", "setting": "Compiled Reps INS RHO, rep 4", "result": 1.892},
      {"measurement": "DR5 fold change relative to empty", "setting": "Compiled Reps INS RHO, rep 4", "result": 1.485},
      {"measurement": "GAPDH fold change relative to empty", "setting": "Compiled Reps INS RHO, rep 4", "result": 0.8039},
      {"measurement": "GFP construct fold change relative to empty", "setting": "Compiled Reps INS RHO, rep 4", "result": 62.5314},
      {"measurement": "CHOP fold change relative to empty", "setting": "Compiled Reps INS RHO, rep 5", "result": 1.831},
      {"measurement": "DR5 fold change relative to empty", "setting": "Compiled Reps INS RHO, rep 5", "result": 1.441},
      {"measurement": "GAPDH fold change relative to empty", "setting": "Compiled Reps INS RHO, rep 5", "result": 1.063},
      {"measurement": "GFP construct fold change relative to empty", "setting": "Compiled Reps INS RHO, rep 5", "result": 61.8163},
      {"measurement": "CHOP fold change relative to empty", "setting": "Compiled Reps INS RHO, rep 6", "result": 1.789},
      {"measurement": "DR5 fold change relative to empty", "setting": "Compiled Reps INS RHO, rep 6", "result": 1.277},
      {"measurement": "GAPDH fold change relative to empty", "setting": "Compiled Reps INS RHO, rep 6", "result": 1.16},
      {"measurement": "GFP construct fold change relative to empty", "setting": "Compiled Reps INS RHO, rep 6", "result": 91.3236},
      {"measurement": "UPR target gene transcription", "setting": "HCT116, transfected 24 hr", "result": "upregulated BiP and CHOP mRNAs"}
    ]}
  ]
}
